In patent publication US12083143B2, “MLK-regulated microRNAs in angiogenesis and tumor development” (University of Massachusetts, priority 2018, dated 2024):

Columns and labels:
[1] = system: primary MLEC cells; assay: qPCR of pro-angiogenic genes in primary MLEC after miR146a mimic transfection, 90 minutes hypoxia; assay type: cell-based, mouse; details: mimic transfected 48 hours, 1% O2, versus control
Protocol: Either control or miR146a mimic were transfected into primary MLEC cells for 48 hours. Cells were incubated for 90 minutes in hypoxia chamber in the presence of 1% O2. RNA was isolated and qPCR was performed for genes as noted.
(§1) Total RNA was extracted from cells and tissues with the RNeasy Mini Kit (Qiagen) or TRIzol reagent (Invitrogen), and 1 μg of total RNA was reverse transcribed with oligo(dT) primers for cDNA synthesis. The expression of mRNA was examined by quantitative PCR analysis using a QuantStudio™ 6 Flex Real-Time PCR System (Applied Biosystems). Taqman© assays were used to quantitate Pgf, Adam8, Mmp9, Angptl4, Hprt (Mm00446968—m1) and Gapdh (4352339E-0904021) mRNA (Applied Biosystems). The 2^−ΔΔCT method is used for relative quantification of gene as described elsewhere^5,6. reference genes of Hprt and Gapdh have been used to normalize the PCRs in each sample.

[2] = system: mouse lung endothelial cell (MLEC); assay: qRT-PCR of angiogenesis related genes in WT MLEC after miR146a mimic, 4 hours post hypoxia; assay type: cell-based; details: mimic 48 hours, versus control
Protocol: (A-D) mRNA was isolated from WT mouse lung endothelial cell (MLEC) treated either with control or miR146a mimic for 48 hours and qRT-PCR was performed for different angiogenesis related genes after 4 hours post hypoxia
Quiescent monolayers of WT and Mlk2/3−/− primary endothelial cell MLECs were exposed to normoxia (21% O2) or hypoxia (1% O2) for 0-24 h in a hypoxia chamber. After exposure cells were immediately harvested and examined for expression of genes by qPCR or immunoblots.
as §1

[3] = system: LLC1 cells; assay: LLC1 lung tumor formation after tail vein injection (experimental metastasis); assay type: in vivo, mouse; details: 1×10^6 LLC1 cells with MLK inhibitor or solvent in 200 ul PBS into tail vein of WT mice; lung isolated after 20 days
Protocol: 1×10^6 LLC1 cells, with either MLK inhibitor (URMC-099) or solvent in 200 ul of sterile PBS were injected into the tail vein of WT mice (12-16 week of age). After 20 days of injection Lung was isolated (A) and tumor number were counted (Control—White bar; MLK inhibitor—Black bar) (B).
We also tested the role of MLK inhibitor in Lung tumor formation. […] After 20 days of injection Lung was isolated and tumor number were counted (Control—White bar; MLK inhibitor—Black bar).

| Molecule | expression of pro-angiogenic factors (VEGF, Angptl4, Angpt2, MMP9) by qPCR [1] | expression of pro-angiogenic factors (VEGF, Angptl4, Angpt2, MMP9) by qPCR ([1]; listed as miR146a) | angiogenesis related gene expression by qRT-PCR [2] | LLC1 tumor formation in vivo (lung tumor number) [3] |
| --- | --- | --- | --- | --- |
| ugagaacugaauuccauggguu (SEQ ID NO:3) [miR146a mimic] | down-regulated | suppressed the pro-angiogenic factors | mimic the MLK deficient phenotype | – |
| CN1CCN(Cc2ccc(-c3cnc4[nH]cc(-c5ccc6[nH]ccc6c5)c4c3)cc2)CC1 [URMC-099] | – | – | – | suppressed LLC1 tumor formation in vivo |
